How the values were obtained:
[1] = tested on: more than 50 other receptors including GPCRs, ion channels and receptor tyrosine kinases; experiment: binding to other receptors tested
Source text: . The specific ligand binding to the receptors is defined as the difference between the total binding and the nonspecific binding determined in the presence of an excess of unlabelled ligand. […]

[2] = Photostability study (ICH Q1B), HPLC; type: physicochemical
Experimental: […]. Samples were exposed to ICH photostability guideline Q1B=1.2 million lux hours of cool, white fluorescent light & 200 watt hours/m2 of UVA light at […]. Samples were exposed for 2 days and tested using HPLC.
[…]. The light exposure was performed in a cabinet set at 25 degrees Celsius/60% RH.
[…]. Changes were evident for crystalline fine particle Form I of PRX-3140 potassium salt after exposure to UVA and white light. The sample changed color particularly on the upper exposed surface of the material and there were changes apparent in the HPLC data. […]. The single impurity profile met the specification (0.20) but significant changes were observed. There was an increase in the number of minor impurities, particularly in a region of the chromatogram between RRT 1.5 and 2.1. Total impurities increased from 0.20% in the control sample to 0.770 in the exposed sample. An impurity at RRT 1.83 which was not present before exposure to light was formed at 0.16% in the exposed sample. Other changes included a change in appearance of the material to a sticky solid and an increase in water content to 4.3% w/w.

[3] = Forced degradation study (acid, base, 3% hydrogen peroxide), LC-UV-MS; type: physicochemical; conditions: 24 hours; for percent peak area at 250 nm, RRT 1.00 (purity of parent molecule) / percent peak area at 250 nm, RRT 1.05 (PRX-3140b): potassium salt
Experimental: Example 4—Crystalline PRX-3140 Potassium Salt Forced Degradation Study. Crystalline fine particle Form I of PRX-3140 potassium salt was subjected to a forced degradation study using acid, base, or hydrogen peroxide exposure for 24 hours. Samples were neutralized and analyzed using LC-UV-MS.
Sample Preparation: Crystalline fine particle Form I of PRX-3140 potassium salt, 50 mg, was weighed out into a 25 mL volumetric flask and taken to volume with water (2 mg/mL stock). One mL of stock was added to four, 4 mL vials. One mL of either 1N HCl, 1N NaOH, 3% H2O2, or DI Water (control) was added to the appropriate vial, mixed, and stored at room temperature for 24 hours. After storage, the samples of acid and base were neutralized by addition of 1 mL their counter solution. […] Samples were analyzed using LC-UV-MS.
Table 5 lists a comparison for the control, acid, base, and peroxide samples showing percent peak area versus relative retention time (RRT) at 250 nm. While some minor changes can be noted between the control with the acid and base samples, the overall purity (peak area) of the parent molecule is just slightly higher for the acid and base sample. Some of the minor impurities appear to be reacting with the acid or base, potentially reforming to the parent.

[4] = 30% peroxide degradation study; type: physicochemical; conditions: 18-hour exposure to 30% hydrogen peroxide; 250 nm
Experimental: […]. Sample was evaporated to dryness and analyzed using LC/UV/MS and NMR analysis. Two major degradants are noted in the LC/UV/MS.
[…]. The solvent is removed under vacuum at RT, then acetonitrile (5 mL) was added to the residue and evaporated to dryness at 40 degrees Celsius. […].
Two milligrams of the sample was weighed into a 4 mL vial. Two mL of 20/80 methanol/water was added to the vial and vortexed vigorously. FIG. 9A is a HPLC chromatogram of the H2O2 sample at 250 nm. Three major peaks are noted, including the parent molecule at 12.5 minutes. […]. Maximums are noted at 220, 250, and 320 nm. Chromatograms for all samples were collected at all three wavelengths with 250 nm as the primary wavelength based on lambda max. FIG. 10A is the UV spectra for the peak at 8.9 minutes. In comparison with the parent molecule, the high-end absorption is absent (320 nm). FIG. 10B is the UV spectra for the peak at 12.9 minutes. […]. An [M+H]+ is noted at 258.0 m/z with [M+H+NH3]+ at 275.1, [M+Na]+ at 280.1, and [2M+Na]+ at 537.1 m/z. It is noted that this is a fragile molecule and required the reduction of the Fragmentor Voltage from 150V down to 70V to see the protonated molecular ion. […] FIG. 11C is the mass spectra of the largest degradation product of PRX-3140b at 12.9 minutes, relative retention time (RRT) of 1.04 (compared to 1.05 in Example 4). […]

blood glucose = experiment: Blood glucose levels after oral PRX-3140 potassium salt; type: in vivo, human; conditions: 15 mg orally, single dose, fed conditions, male volunteers
Experimental: Example 18—Blood Glucose Levels of Controls vs. Sustained-Release Oral PRX-3140 Potassium Salt Capsules. A Phase I, single dose escalation study under fed conditions was conducted in male volunteers with PRX-3140 potassium salt at the 15 mg dose level. […] The study was also conducted to examine the effects of PRX-3140 sustained-release capsule administration on the subjects' fasting and postprandial blood glucose concentrations. Subjects were monitored daily for vital signs (including blood pressure, heart rate, respiratory rate, and temperature) and adverse events. In addition, blood was drawn to assess glucose concentration. Glucose was tested within 60 minutes prior to meals in the morning and throughout the day at different timepoints.

[5] = Acid (1N HCl), listed as PRX-3140 Potassium Salt
[6] = Acid (1N HCl), listed as PRX-3140 potassium salt
[7] = Base (1N NaOH), listed as PRX-3140 Potassium Salt
[8] = Base (1N NaOH), listed as PRX-3140 potassium salt
[9] = Control (DI Water), listed as PRX-3140 Potassium Salt
[10] = Control (DI Water), listed as PRX-3140 potassium salt
[11] = H2O2 (3%), listed as PRX-3140 Potassium Salt
[12] = H2O2 (3%), listed as PRX-3140 potassium salt

CC(C)n1c(=O)c(C(=O)NCCCN2CCCCC2)c([O-])c2ccsc21.[K+] [PRX-3140, 6,7-Dihydro-4-hydroxy-7-isopropyl-6-oxo-N-(3-(piperidin-1-yl)propyl)thieno[2,3-b]pyridine-5-carboxamide potassium salt]
affinity for more than 50 other receptors tested [1]: no significant affinity | assay value ([2]; Exposed Sample (ICH Q1B light, 2 days)): 94.20 % w/w | Water Content - KF ([2]; t = 0, listed as PRX-3140 potassium salt, potassium salt): 0.900 % w/w | percent peak area at 250 nm, RRT 0.99 ([3]; Acid (1N HCl)): 0.07% | percent peak area at 250 nm, RRT 1.08 ([3]; Acid (1N HCl)): 0.11% | percent peak area at 250 nm, RRT 1.11 ([3]; Acid (1N HCl)): 0.04% | percent peak area at 250 nm, RRT 1.27 ([3]; Acid (1N HCl)): 0.04% | percent peak area at 250 nm, RRT 1.34 ([3]; Acid (1N HCl)): 0.15% | percent peak area at 250 nm, RRT 1.53 ([3]; Acid (1N HCl)): 0.43% | percent peak area at 250 nm, RRT 1.79 ([3]; Acid (1N HCl)): 0.04% | percent peak area at 250 nm, RRT 2.51 ([3]; Acid (1N HCl)): 0.06% | percent peak area at 250 nm, RRT 2.70 ([3]; Acid (1N HCl)): 0.13% | percent peak area at 250 nm, RRT 1.00 (purity of parent molecule) [3, 5]: 98.94% | percent peak area at 250 nm, RRT 1.05 (PRX-3140b) [3, 5]: <0.03% | percent peak area at 250 nm, RRT 1.00 (purity of parent molecule) [3, 6]: 98.9% | percent peak area at 250 nm, RRT 1.05 (PRX-3140b) [3, 6]: < 0.03% | percent peak area at 250 nm, RRT 0.94 ([3]; Base (1N NaOH)): 0.28% | percent peak area at 250 nm, RRT 1.08 ([3]; Base (1N NaOH)): 0.12% | percent peak area at 250 nm, RRT 1.34 ([3]; Base (1N NaOH)): 0.16% | percent peak area at 250 nm, RRT 1.53 ([3]; Base (1N NaOH)): 0.42% | percent peak area at 250 nm, RRT 1.79 ([3]; Base (1N NaOH)): 0.05% | percent peak area at 250 nm, RRT 2.51 ([3]; Base (1N NaOH)): 0.05% | percent peak area at 250 nm, RRT 2.70 ([3]; Base (1N NaOH)): 0.12% | percent peak area at 250 nm, RRT 1.00 (purity of parent molecule) [3, 7]: 98.71% | percent peak area at 250 nm, RRT 1.05 (PRX-3140b) [3, 7]: <0.03% | percent peak area at 250 nm, RRT 1.00 (purity of parent molecule) [3, 8]: 98.7% | percent peak area at 250 nm, RRT 1.05 (PRX-3140b) [3, 8]: < 0.03% | percent peak area at 250 nm, RRT 1.08 ([3]; Control (DI Water)): 0.12% | percent peak area at 250 nm, RRT 1.11 ([3]; Control (DI Water)): 0.04% | percent peak area at 250 nm, RRT 1.34 ([3]; Control (DI Water)): 0.17% | percent peak area at 250 nm, RRT 1.53 ([3]; Control (DI Water)): 0.42% | percent peak area at 250 nm, RRT 1.71 ([3]; Control (DI Water)): 0.23% | percent peak area at 250 nm, RRT 1.79 ([3]; Control (DI Water)): 0.11% | percent peak area at 250 nm, RRT 1.93 ([3]; Control (DI Water)): 0.06% | percent peak area at 250 nm, RRT 2.51 ([3]; Control (DI Water)): 0.06% | percent peak area at 250 nm, RRT 2.70 ([3]; Control (DI Water)): 0.18% | percent peak area at 250 nm, RRT 1.00 (purity of parent molecule) [3, 9]: 98.60% | percent peak area at 250 nm, RRT 1.05 (PRX-3140b) [3, 9]: <0.03% | percent peak area at 250 nm, RRT 1.00 (purity of parent molecule) [3, 10]: 98.6% | percent peak area at 250 nm, RRT 1.05 (PRX-3140b) [3, 10]: < 0.03% | percent peak area at 250 nm, RRT 1.00 (purity of parent molecule) ([3]; Control (DI Water)): 98.6% | percent peak area at 250 nm, RRT 0.78 (PRX-3140a) ([3]; H2O2 (3%)): 8.49% | percent peak area at 250 nm, RRT 0.82 ([3]; H2O2 (3%)): 0.10% | percent peak area at 250 nm, RRT 1.08 ([3]; H2O2 (3%)): 0.19% | percent peak area at 250 nm, RRT 1.27 ([3]; H2O2 (3%)): 0.21% | percent peak area at 250 nm, RRT 1.34 ([3]; H2O2 (3%)): 0.09% | percent peak area at 250 nm, RRT 1.42 ([3]; H2O2 (3%)): 0.32% | percent peak area at 250 nm, RRT 1.53 ([3]; H2O2 (3%)): 0.42% | percent peak area at 250 nm, RRT 1.79 ([3]; H2O2 (3%)): 0.19% | percent peak area at 250 nm, RRT 2.70 ([3]; H2O2 (3%)): 0.11% | percent peak area at 250 nm, RRT 1.00 (purity of parent molecule) [3, 11]: 80.57% | percent peak area at 250 nm, RRT 1.05 (PRX-3140b) [3, 11]: 9.06% | percent peak area at 250 nm, RRT 1.00 (purity of parent molecule) [3, 12]: 80.6% | percent peak area at 250 nm, RRT 1.05 (PRX-3140b) [3, 12]: 9.1% | percent peak area at 250 nm, RRT 1.00 (purity of parent molecule) ([3]; H2O2 (3%)): 80.6% | purity of the parent molecule PRX-3140 [4]: 29.6% | mean blood glucose level decrease compared to control values (blood glucose): −19.5%
